Test results reported in US11083725B2 (priority 2014, dated 2021).

Tested on: NHBE cells
Test: Biolog metabolic array: substrate use by NHBE cells with or without CA09 infection
Assay type: cell-based, human
Settings: for Substrate use, 590 nm absorbance normalized to zero hour, 0 hr: Biolog PMM2, 0 hr; for Substrate use, 590 nm absorbance normalized to zero hour, 1 hr: Biolog PMM2, 1 hr; for Substrate use, 590 nm absorbance normalized to zero hour, 5 hr: Biolog PMM2, 5 hr; for Substrate use, 590 nm absorbance normalized to zero hour, 7 hr: Biolog PMM2, 7 hr
[1] = Control (uninfected) NHBE cells
[2] = Virus (CA09-infected, MOI 1) NHBE cells
[3] = Virus: CA09-infected NHBE cells, MOI 1, Biolog PMM2
[4] = Virus (CA09, MOI 1) infected NHBE cells
[5] = Virus (CA09-infected NHBE cells, MOI 1)

## O=C(CO)[C@@H](O[C@H]1O[C@H](CO)[C@@H](O)[C@H](O)[C@H]1O)[C@H](O)[C@H](O)CO [Turanose]
[1]
  590 nm absorbance normalized to zero hour (substrate use), 0 hr: 1.00
  590 nm absorbance normalized to zero hour (substrate use), 1 hr: 0.23
  590 nm absorbance normalized to zero hour (substrate use), 2 hr: 0.31
  590 nm absorbance normalized to zero hour (substrate use), 3 hr: 0.36
  590 nm absorbance normalized to zero hour (substrate use), 4 hr: 0.40
  590 nm absorbance normalized to zero hour (substrate use), 6 hr: 0.49
  590 nm absorbance normalized to zero hour (substrate use), 8 hr: 0.51
  590 nm absorbance normalized to zero hour (substrate use), 9 hr: 0.57
  590 nm absorbance normalized to zero hour (substrate use), 10 hr: 0.57
  590 nm absorbance normalized to zero hour (substrate use), 11 hr: 0.60
  Substrate use, 590 nm absorbance normalized to zero hour, 0 hr: 1.00
  Substrate use, 590 nm absorbance normalized to zero hour, 1 hr: 0.23
  Substrate use, 590 nm absorbance normalized to zero hour, 5 hr: 0.55
  Substrate use, 590 nm absorbance normalized to zero hour, 7 hr: 0.44
[2]
  590 nm absorbance normalized to zero hour (substrate use), 0 hr: 1.00
  590 nm absorbance normalized to zero hour (substrate use), 1 hr: 0.20
  590 nm absorbance normalized to zero hour (substrate use), 2 hr: 0.28
  590 nm absorbance normalized to zero hour (substrate use), 3 hr: 0.34
  590 nm absorbance normalized to zero hour (substrate use), 4 hr: 0.36
  590 nm absorbance normalized to zero hour (substrate use), 5 hr: 0.44
  590 nm absorbance normalized to zero hour (substrate use), 6 hr: 0.48
  590 nm absorbance normalized to zero hour (substrate use), 7 hr: 0.51
  590 nm absorbance normalized to zero hour (substrate use), 8 hr: 0.56
  590 nm absorbance normalized to zero hour (substrate use), 9 hr: 0.61
  590 nm absorbance normalized to zero hour (substrate use), 10 hr: 0.60
  590 nm absorbance normalized to zero hour (substrate use), 11 hr: 0.55
[3]
  590 nm absorbance normalized to zero hour (substrate use), 0 hr: 1.00
  590 nm absorbance normalized to zero hour (substrate use), 1 hr: 0.20
  590 nm absorbance normalized to zero hour (substrate use), 2 hr: 0.28
  590 nm absorbance normalized to zero hour (substrate use), 3 hr: 0.34
  590 nm absorbance normalized to zero hour (substrate use), 4 hr: 0.36
  590 nm absorbance normalized to zero hour (substrate use), 5 hr: 0.44
  590 nm absorbance normalized to zero hour (substrate use), 6 hr: 0.48
  590 nm absorbance normalized to zero hour (substrate use), 7 hr: 0.51
  590 nm absorbance normalized to zero hour (substrate use), 8 hr: 0.56
  590 nm absorbance normalized to zero hour (substrate use), 9 hr: 0.61
  590 nm absorbance normalized to zero hour (substrate use), 10 hr: 0.60
  590 nm absorbance normalized to zero hour (substrate use), 11 hr: 0.55

## CO[C@@H]1O[C@H](CO)[C@@H](O)[C@H](O)[C@H]1O [b-Methyl-D-Glucoside]
[1]
  590 nm absorbance normalized to zero hour (substrate use), 0 hr: 1.00
  590 nm absorbance normalized to zero hour (substrate use), 1 hr: 1.32
  590 nm absorbance normalized to zero hour (substrate use), 2 hr: 1.80
  590 nm absorbance normalized to zero hour (substrate use), 3 hr: 1.84
  590 nm absorbance normalized to zero hour (substrate use), 4 hr: 2.02
  590 nm absorbance normalized to zero hour (substrate use), 6 hr: 1.04
  590 nm absorbance normalized to zero hour (substrate use), 8 hr: 3.05
  590 nm absorbance normalized to zero hour (substrate use), 9 hr: 3.33
  590 nm absorbance normalized to zero hour (substrate use), 10 hr: 3.70
  590 nm absorbance normalized to zero hour (substrate use), 11 hr: 4.24
  Substrate use, 590 nm absorbance normalized to zero hour, 0 hr: 1.00
  Substrate use, 590 nm absorbance normalized to zero hour, 1 hr: 1.32
  Substrate use, 590 nm absorbance normalized to zero hour, 5 hr: 2.32
  Substrate use, 590 nm absorbance normalized to zero hour, 7 hr: 2.85
[4]
  Substrate use, 590 nm absorbance normalized to zero hour, 0 hr: 1.00
  Substrate use, 590 nm absorbance normalized to zero hour, 1 hr: 2.00
  Substrate use, 590 nm absorbance normalized to zero hour, 5 hr: 3.99
  Substrate use, 590 nm absorbance normalized to zero hour, 7 hr: 4.57
[2]
  590 nm absorbance normalized to zero hour (substrate use), 0 hr: 1.00
  590 nm absorbance normalized to zero hour (substrate use), 1 hr: 2.00
  590 nm absorbance normalized to zero hour (substrate use), 2 hr: 2.80
  590 nm absorbance normalized to zero hour (substrate use), 3 hr: 3.24
  590 nm absorbance normalized to zero hour (substrate use), 4 hr: 3.45
  590 nm absorbance normalized to zero hour (substrate use), 6 hr: 4.32
  590 nm absorbance normalized to zero hour (substrate use), 8 hr: 4.86
  590 nm absorbance normalized to zero hour (substrate use), 9 hr: 5.41
  590 nm absorbance normalized to zero hour (substrate use), 10 hr: 5.67
  590 nm absorbance normalized to zero hour (substrate use), 11 hr: 6.22

## C[C@H](O)[C@H](O)[C@@H](O)[C@@H](O)C=O [L-Rhamnose]
[1]
  590 nm absorbance normalized to zero hour (substrate use), 1 hr: 1.28
  590 nm absorbance normalized to zero hour (substrate use), 2 hr: 1.52
  590 nm absorbance normalized to zero hour (substrate use), 3 hr: 1.49
  590 nm absorbance normalized to zero hour (substrate use), 4 hr: 1.66
  590 nm absorbance normalized to zero hour (substrate use), 6 hr: 2.53
  590 nm absorbance normalized to zero hour (substrate use), 8 hr: 2.01
  590 nm absorbance normalized to zero hour (substrate use), 9 hr: 2.71
  590 nm absorbance normalized to zero hour (substrate use), 10 hr: 2.22
  590 nm absorbance normalized to zero hour (substrate use), 11 hr: 2.36
  Substrate use, 590 nm absorbance normalized to zero hour, 1 hr: 1.28
  Substrate use, 590 nm absorbance normalized to zero hour, 5 hr: 2.12
  Substrate use, 590 nm absorbance normalized to zero hour, 7 hr: 1.91
[5]
  590 nm absorbance normalized to zero hour (substrate use), 1 hr: 0.16
  590 nm absorbance normalized to zero hour (substrate use), 2 hr: 0.22
  590 nm absorbance normalized to zero hour (substrate use), 3 hr: 0.25
  590 nm absorbance normalized to zero hour (substrate use), 4 hr: 0.28
  590 nm absorbance normalized to zero hour (substrate use), 5 hr: 0.32
  590 nm absorbance normalized to zero hour (substrate use), 6 hr: 0.34
  590 nm absorbance normalized to zero hour (substrate use), 7 hr: 0.36
  590 nm absorbance normalized to zero hour (substrate use), 8 hr: 0.38
  590 nm absorbance normalized to zero hour (substrate use), 9 hr: 0.41
  590 nm absorbance normalized to zero hour (substrate use), 10 hr: 0.43
  590 nm absorbance normalized to zero hour (substrate use), 11 hr: 0.46
[3]
  590 nm absorbance normalized to zero hour (substrate use), 1 hr: 0.16
  590 nm absorbance normalized to zero hour (substrate use), 2 hr: 0.22
  590 nm absorbance normalized to zero hour (substrate use), 3 hr: 0.25
  590 nm absorbance normalized to zero hour (substrate use), 4 hr: 0.28
  590 nm absorbance normalized to zero hour (substrate use), 5 hr: 0.32
  590 nm absorbance normalized to zero hour (substrate use), 6 hr: 0.34
  590 nm absorbance normalized to zero hour (substrate use), 7 hr: 0.36
  590 nm absorbance normalized to zero hour (substrate use), 8 hr: 0.38
  590 nm absorbance normalized to zero hour (substrate use), 9 hr: 0.41
  590 nm absorbance normalized to zero hour (substrate use), 10 hr: 0.43
  590 nm absorbance normalized to zero hour (substrate use), 11 hr: 0.46
